Measurements from publication PMC3950723, “A fluorescence-based assay suitable for quantitative analysis of deadenylase enzyme activity” (Nucleic Acids Research, 2013).
{Flc} = fluorescein group

How the values were obtained:
Assay type in all cases: biochemical
Caf1/CNOT7 = biological target: T1, Caf1/CNOT7 (Homo sapiens, UniProt Q9UIV1); assay: fluorescence-based deadenylase assay; conditions: for inhibition of Caf1/CNOT7 activity: 300 µM compound; for IC50: 15 min pre-incubation at room temperature, 60 min at 30°C, ± standard error of the mean, at least three independent experiments
T1 construct: hexahistidine (N); made in house; host or cells: Escherichia coli BL21 (DE3), plasmid pQE80L
T1 sequence (Q9UIV1 whole entry): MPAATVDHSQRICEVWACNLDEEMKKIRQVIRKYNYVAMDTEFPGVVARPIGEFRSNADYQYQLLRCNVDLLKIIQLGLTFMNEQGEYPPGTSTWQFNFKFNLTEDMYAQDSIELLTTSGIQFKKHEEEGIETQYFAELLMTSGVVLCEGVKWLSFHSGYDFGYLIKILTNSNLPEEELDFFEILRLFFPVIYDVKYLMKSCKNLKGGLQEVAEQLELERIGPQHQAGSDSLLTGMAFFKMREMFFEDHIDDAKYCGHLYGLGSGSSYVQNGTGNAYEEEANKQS
Procedure: (§1) Standard reaction conditions for deadenylase assays were: 20 mM Tris–HCl pH 7.9, 50 mM NaCl, 2 mM MgCl2, 10% glycerol, 1 mM β-mercaptoethanol and 1.0 µM 5′-Flc-labelled RNA substrate in nuclease-free water.
(§2) For fluorescence-based detection of nuclease activity, deadenylase reactions (10–20 µl) were incubated at 30°C for 60 min and stopped by the addition of an equal volume of probe mix containing 1% SDS, and a 5-fold molar excess of 3′-labelled DNA probe. Fluorescence intensity was measured at 25°C (sensitivity setting 70–90) using a BioTek Synergy HT plate reader with 96 or 384 U-shaped black multi-well plates. Filter sets used were: 485 ± 20 nm (excitation) and 528 ± 20 nm (emission). Data analysis and curve-fitting were carried out using Microsoft Excel 2007 and Graphpad Prism 5.0.
Compounds (10 mM in dimethyl sulphoxide, DMSO) were stored in a dry, inert environment at −20°C and dispensed in 96-well plates using an automated facility (TTP Labtech Technology). Compounds were diluted to 0.5 mM using 20% DMSO/water. Aliquots (4 µl; 25% DMSO/water) were transferred to black U-well 384-well plates (Greiner Bio-One) and subsequent automated screening was carried out using a Biomek 3000 liquid handler (Beckman Coulter). After addition of enzyme (8 µl containing 1.0 µM Caf1/CNOT7, 50 mM Tris–HCl pH 7.9, 125 mM NaCl, 5 mM MgCl2, 25% glycerol, 2.5 mM β-mercaptoethanol), plates were left at room temperature for 15 min before the addition of RNA substrate (8 µl). The composition of the final reaction mixture was: 0.4 µM Caf1/CNOT7, 20 mM Tris–HCl pH 7.9, 50 mM NaCl, 2 mM MgCl2, 10% glycerol, 1 mM β-mercaptoethanol, 5% DMSO, 100 µM library compound. After incubation at 30°C for 60 min, 20 µl probe mix (5 µM DNA probe, 1% SDS, 20 mM Tris–HCl pH 8.0, 0.5 mM EDTA) was added. Fluorescence was measured using a BioTek Synergy HT plate reader as described above.

PARN = biological target: T2, PARN (Homo sapiens, UniProt O95453); assay: fluorescence-based deadenylase assay, selectivity; conditions: 300 µM compound
T2 construct: made in house
T2 sequence (O95453 1-639): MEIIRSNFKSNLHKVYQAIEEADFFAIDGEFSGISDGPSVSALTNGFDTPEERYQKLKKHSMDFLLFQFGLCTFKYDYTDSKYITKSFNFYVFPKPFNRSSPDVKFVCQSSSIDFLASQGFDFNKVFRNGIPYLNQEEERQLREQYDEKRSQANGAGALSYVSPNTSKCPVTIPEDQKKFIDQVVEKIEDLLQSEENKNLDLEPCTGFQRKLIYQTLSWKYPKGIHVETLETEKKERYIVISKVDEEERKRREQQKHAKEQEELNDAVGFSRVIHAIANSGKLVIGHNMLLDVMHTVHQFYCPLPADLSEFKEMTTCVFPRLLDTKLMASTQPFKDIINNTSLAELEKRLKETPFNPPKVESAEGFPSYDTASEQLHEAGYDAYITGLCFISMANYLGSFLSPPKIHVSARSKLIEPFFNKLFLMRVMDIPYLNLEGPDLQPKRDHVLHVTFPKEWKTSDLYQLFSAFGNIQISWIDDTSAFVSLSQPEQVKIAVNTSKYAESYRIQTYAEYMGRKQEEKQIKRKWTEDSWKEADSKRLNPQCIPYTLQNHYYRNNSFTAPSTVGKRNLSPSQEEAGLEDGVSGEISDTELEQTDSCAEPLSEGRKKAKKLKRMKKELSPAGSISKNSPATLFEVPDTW
Procedure: as §1, §2

Ccr4/CNOT6L = biological target: T3, Ccr4/CNOT6L (Homo sapiens, UniProt Q96LI5); assay: fluorescence-based deadenylase assay, selectivity; conditions: 300 µM compound
T3 construct: lacking the amino terminal leucine-rich repeat domain (amino acids 1–155); made in house; host or cells: E. coli, plasmid pQE80L
T3 sequence (Q96LI5 156-555): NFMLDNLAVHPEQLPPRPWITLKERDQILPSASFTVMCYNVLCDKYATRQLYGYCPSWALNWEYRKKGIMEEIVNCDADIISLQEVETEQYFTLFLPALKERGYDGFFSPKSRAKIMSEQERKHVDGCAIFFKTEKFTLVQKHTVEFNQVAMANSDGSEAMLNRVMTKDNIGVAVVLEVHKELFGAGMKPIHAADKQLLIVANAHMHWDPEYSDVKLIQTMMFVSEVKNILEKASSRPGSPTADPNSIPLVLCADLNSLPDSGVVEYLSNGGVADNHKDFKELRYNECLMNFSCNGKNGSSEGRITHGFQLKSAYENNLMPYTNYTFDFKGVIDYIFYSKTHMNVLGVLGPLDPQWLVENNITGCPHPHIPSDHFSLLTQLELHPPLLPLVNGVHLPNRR
Procedure: as §1, §2

[1] = test system: HeLa S-100 cytoplasmic extract; assay: fluorescence-based detection of 3′ exonuclease activity in complex mixtures; conditions: 300 µM compound, 0.05 mg/ml S-100 fraction
Procedure: as §1, §2
HeLa cytoplasmic extract (S-100 fraction) was purchased from Boston Biochem (cat no F-372, 5 mg/ml).

Compound | Km (Caf1/CNOT7; 0.4 µM Caf1/CNOT7, non-linear regression of Michaelis–Menten equation) | inhibition of PARN activity (PARN) | inhibition of Ccr4/CNOT6L activity (Ccr4/CNOT6L) | inhibition of Caf1/CNOT7 activity (Caf1/CNOT7) | IC50 (Caf1/CNOT7) | inhibition of activity of the S-100 fraction [1]
5′-CCU UUC CAA AAA AAA A-3′ (CCUUUCCAAAAAAAAA; RNA, 5' {Flc}, backbone not given here; Deadenylase RNA substrate) [oligonucleotide substrate, 16-mer RNA substrate oligonucleotide containing a 5′ fluorescein (Flc) group, reference compound] | 10.6 ± 2.9 µM |  |  |  |  | 
Cc1ccccc1C(=O)Nc1nc2ccc(S(=O)(=O)NCC(C)C)cc2s1 [NCC-00001590] |  | did not inhibit | did not inhibit | only inhibited Caf1/CNOT7 | 98.7 ± 10.9 µM | 
CC(Cc1ccco1)NC(=O)CSc1nnc(C(=O)Nc2ccc(Cl)cc2)s1 (stereo not drawn) [NCC-00007277] |  |  |  |  | 137 ± 20.3 µM | strongest effect
Cc1ccc(S(=O)(=O)NCc2nnc(NC(=O)c3ccc(NC(=O)C(F)(F)F)cc3)s2)cc1 [NCC-00010651] |  | no complete inhibition | no complete inhibition |  | 233 ± 23.5 µM | 
Cc1ccc(N(CCC#N)C(=O)CSc2nc3cc(S(N)(=O)=O)ccc3n2C)cc1 [NCC-00019223] |  |  |  |  | 97.5 ± 36.1 µM | 
COc1ccccc1NC(=O)c1ccc(NC(=O)CNC(=O)C(=O)NCc2cccs2)cc1 [NCC-00039069] |  | did not inhibit | did not inhibit | only inhibited Caf1/CNOT7 | 129 ± 18.8 µM | 
